Experimental data taken from patent publication US5929063A, “Mercapto and seleno derivatives as inhibitors of nitric oxide synthase” (priority 1995, dated 1999).
“Also recorded” adds a separate entry of the source. Read-outs that look alike come from different tables or passages of the source.

Key:
[1] = system: J774.2 macrophages; assay: Nitrite production in immunostimulated J774.2 macrophages (E.coli LPS + murine gamma-interferon, 24 h); type: cell-based, mouse; settings: for activity at 1 µM / activity at 3.16 µM / activity at 10 µM / activity at 31.6 µM / activity at 100 µM / activity at 1000 µM / EC50: Mus musculus; for activity at 1 µM / activity at 3.16 µM / activity at 10 µM / activity at 31.6 µM / activity at 100 µM / activity at 1000 µM: J774.2, 24 h, read-out: NITRITE (% OF CONTROL); for activity at 1000 µM: inhibitor concentration -3.000 log M (Table 3)
Description: This example illustrates the effect of selected mercapto and seleno derivatives on nitrite production in J774.2 immunostimulated macrophages. The J774.2 mouse macrophage cell line was obtained from the ATCC and was cultured in DMEM with 4×10^-3 M L-glutamine and 10% fetal calf serum. Cells were cultured in 96-well plates with 200 μl culture medium until they reached 60-80% confluence. To induce INOS, fresh culture medium containing E.coli LPS (10 μg/ml) and murine gamma-interferon (IFN)(50 U/ml) was added. Nitrite accumulation in the cell culture medium in the absence or presence of various inhibitors was measured after 24 hours. Nitrite production, an indicator of NO synthesis, was measured in the supernatant of J774.2 macrophages by the Greiss reaction as described in Example 1 above.
This Example illustrates the effect of selected seleno derivatives on endotoxin-induced nitrite formation in J774.2 macrophages. The mouse macrophage cell line J774.2 obtained from the ATCC was cultured in DMEM with 4×10^-3 M L-glutamine and 10% fetal calf serum. Cells were cultured in 96-well plates with 200 μl culture medium until they reached 60-80% confluence. To induce iNOS, fresh culture medium containing E.coli LPS (10 μg/ml) and murine gamma-interferon (IFN)(50 U/ml) were added. Nitrite accumulation in the cell culture medium in the absence or presence of various inhibitors was measured after 24 hours. There was no detectable nitrite production by the J774.2 macrophages in the absence of immunostimulation. However, in the presence of IFN and LPS, nitrite concentration of the medium increased to 17±2 μM in the absence of inhibitor.

[2] = target: T1, iNOS (Rattus norvegicus, UniProt Q06518); assay: Inhibition of iNOS activity in tissue homogenates (Table 2); type: biochemical; design: bNOS in tissue homogenates; from tissue; host or cells: tissue homogenate; settings: for EC50: iNOS (Table 2)
[3] = target: T2, ecNOS (Bos taurus, UniProt P29473); assay: ecNOS activity from intimal scrapings of fresh bovine aortae (conversion of [3H]-L-arginine to [3H]-L-citrulline); type: biochemical
T2 construct: the intimal surface of fresh bovine aortae was scraped and homogenized; from tissue; host or cells: homogenate of intimal scrapings of fresh bovine aortae
Description: The intimal surface of fresh bovine aortae was scraped in the presence of homogenation buffer composed of 50 mM Tris-HCl, 0.1 mM ethylenediamine tetraacetic acid (EDTA) and 0.1 mM ethyleneglycol bis (beta-aminoethyl ether) (EGTA). Conversion of [^3 H]-L-arginine to [^3 H]-L-citrulline was measured in the homogenates as follows: cell homogenate (50 μl) was incubated in the presence of [^3 H]-L-arginine (10 μM, 5 kBq/tube), NADPH (2 mM), calmodulin (30 nM), tetrahydrobiopterin (5 μM) and calcium (2 mM) for 20 minutes at 37° C. in N-2-hydroxethyl piperazine-N-2-ethane sulfonic acid (HEPES) buffer (pH 7.5). Reactions were stopped by dilution with 1 ml of ice cold HEPES buffer (pH 5.5) containing EGTA (2 mM) and EDTA (2 mM). Reaction mixtures were applied to Dowex 50W (Na^+ form) columns and the eluted [^3 H]-L-citrulline activity was measured by scintillation counting. bNOS activity was measured using similar methods in homogenates of whole rat brains.
For a preparation rich in ecNOS, the intimal surface of fresh bovine aortae was scraped and homogenized. The homogenization buffer was composed of 50 mM tris-HCL, 0.1 mM EDTA, 0.1 mM EGTA and 1 mM phenylmethylsulfonyl chloride (pH 7.4). Cell suspensions were homogenized in the homogenization buffer on ice using a Tissue Tearor 985-370 homogenizer (BioSpec Products, Racine, Wis.). Conversion of [^3 H]-L-arginine to [^3 H]-L-citrulline was measured in the homogenates as described in Example 3 above.

[4] = target: T1, iNOS; assay: iNOS activity in lung homogenates from rats treated with bacterial endotoxin; type: biochemical; design: Lungs were obtained from rats which had been treated with bacterial endotoxin; from tissue; host or cells: lung homogenate from endotoxin-treated rats; settings: for selectivity for iNOS: iNOS vs ecNOS EC50 values; for inhibition of iNOS activity, in words: lung homogenates, rats treated with endotoxin
Description: This Example illustrates the effect of selected mercapto and seleno derivatives on iNOS activity in lung homogenates prepared from rats treated with endotoxin. […] The homogenization buffer was composed of 50 mM tris-HCL, 0.1 mM EDTA, 0.1 mM EGTA and 1 mM phenylmethylsulfonyl chloride (pH 7.4). Cell suspensions were homogenized in the homogenization buffer on ice using a Tissue Tearor 985-370 homogenizer (BioSpec Products, Racine, Wis.).

[5] = target: T3, bNOS (Rattus norvegicus, UniProt P29476); assay: bNOS activity in homogenates of whole rat brains; type: biochemical
T3 construct: bNOS activity was measured using similar methods in homogenates of whole rat brains; from tissue; host or cells: homogenate of whole rat brains
T3 sequence (P29476 whole entry): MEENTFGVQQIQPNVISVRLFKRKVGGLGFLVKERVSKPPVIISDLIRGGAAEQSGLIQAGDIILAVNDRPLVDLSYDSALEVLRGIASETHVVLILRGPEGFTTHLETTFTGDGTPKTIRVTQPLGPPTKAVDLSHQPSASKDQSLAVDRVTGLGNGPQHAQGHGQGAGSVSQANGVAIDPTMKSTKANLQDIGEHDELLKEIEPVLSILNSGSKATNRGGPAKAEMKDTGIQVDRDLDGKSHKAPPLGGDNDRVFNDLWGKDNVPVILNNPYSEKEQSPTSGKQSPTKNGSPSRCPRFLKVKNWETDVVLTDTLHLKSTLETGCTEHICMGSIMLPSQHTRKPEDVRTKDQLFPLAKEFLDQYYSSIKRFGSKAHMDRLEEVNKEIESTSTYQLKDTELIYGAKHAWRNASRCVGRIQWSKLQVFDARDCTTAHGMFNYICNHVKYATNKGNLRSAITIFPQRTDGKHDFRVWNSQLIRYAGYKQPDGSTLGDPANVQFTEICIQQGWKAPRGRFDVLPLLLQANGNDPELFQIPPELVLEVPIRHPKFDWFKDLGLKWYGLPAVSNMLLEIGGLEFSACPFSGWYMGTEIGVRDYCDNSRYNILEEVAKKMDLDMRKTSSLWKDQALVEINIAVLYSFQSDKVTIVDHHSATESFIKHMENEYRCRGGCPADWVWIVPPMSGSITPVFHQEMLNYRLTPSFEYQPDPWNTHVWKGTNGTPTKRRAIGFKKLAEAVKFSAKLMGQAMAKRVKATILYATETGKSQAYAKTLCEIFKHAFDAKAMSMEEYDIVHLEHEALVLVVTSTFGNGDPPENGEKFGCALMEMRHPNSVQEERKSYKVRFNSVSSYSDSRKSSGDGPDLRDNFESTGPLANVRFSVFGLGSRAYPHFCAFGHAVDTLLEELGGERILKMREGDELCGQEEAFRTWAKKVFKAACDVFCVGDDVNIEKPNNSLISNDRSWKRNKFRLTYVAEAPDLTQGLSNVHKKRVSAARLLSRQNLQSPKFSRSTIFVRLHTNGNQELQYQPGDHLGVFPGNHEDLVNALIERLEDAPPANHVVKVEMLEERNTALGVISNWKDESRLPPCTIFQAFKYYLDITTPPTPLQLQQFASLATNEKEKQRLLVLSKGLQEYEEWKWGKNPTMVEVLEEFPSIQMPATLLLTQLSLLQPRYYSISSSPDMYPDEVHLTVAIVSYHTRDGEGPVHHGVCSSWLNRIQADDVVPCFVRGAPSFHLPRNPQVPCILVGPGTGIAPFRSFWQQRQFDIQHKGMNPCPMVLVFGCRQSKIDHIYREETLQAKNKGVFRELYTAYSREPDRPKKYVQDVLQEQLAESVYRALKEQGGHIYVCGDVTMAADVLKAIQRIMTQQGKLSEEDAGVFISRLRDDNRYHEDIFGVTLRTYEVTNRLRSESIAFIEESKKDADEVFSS

[6] = system: J774 macrophages; assay: Nitrite production by immunostimulated J774 macrophages (endotoxin 24 h, Griess); type: cell-based, mouse; settings: for EC50: Mus musculus, J774, endotoxin 10 μg/ml, 24 h (Table 1), read-out: EC50 for the inhibition of nitrite production by stimulated J774 macrophages
Description: (§1) This example illustrates the effect of selected mercapto derivatives on endotoxin-induced nitrite formation in J774.2 macrophages and on IL-1 gamma-interferon induced nitrite formation in cultured rat arctic smooth muscle cells. J774 macrophage cell lines were obtained from the American Type Culture Collection (ATCC) and were grown using standard methods in Dulbecco's Modified Eagle Medium (DMEM) supplemented with 10% fetal bovine serum, glutamine, penicillin (10,000 U/l) and streptomycin (10,000 U/l). Rat aortic smooth muscle cells (RASM) from Wistar rats were isolated by enzymatic dissociation using standard methods. The cells were positively identified as smooth muscle by indirect immunofluorescent staining for a-actin, using mouse anti-α-actin antibody and anti-mouse IgG fluorescein isothiocyanate (FITC) conjugate. RASM cells were grown in T-75 tissue culture flasks in 50% F12 nutrient medium and 50% Dulbecco's Modified Eagle Medium supplemented with 10% fetal bovine serum, glutamine, penicillin (10,000 U/l) and streptomycin (10,000 U/l). Cells were grown in 96-well plates for measure of nitrite production and cell viability. J774 macrophages were treated with endotoxin (10 μg/ml) for 24 hours; smooth muscle cells were treated with IL-1 (100 U/ml) and gamma-interferon (50 U/ml) for 48 hours.
Concentration of nitrite, the degradation product of NO in the culture medium, was determined by mixing equal volumes of medium with the Griess reagent (1% sulfanilamide/0.1% naphthylethylenediamine dihydrochloride/2.5% H3 PO4). The mixture was incubated for 10 minutes at room temperature to form the chromophore, then optical densities (OD) were determined at 550 nm (OD550). NaNO2 was used as the standard. Spectrophotometric measurements were performed in a dual-wavelength spectrophotometer.

[7] = system: J774 macrophages; assay: Mitochondrial respiration (MTT reduction), cell viability of immunostimulated J774 macrophages; type: cell-based, mouse
Description: as §1
Mitochondrial respiration, an indicator of cell viability, was assessed by the mitochondrial-dependent reduction of MTT [3-(4,5-dimethylthiazol-2-yl)-2,5-diphenyltetrazolium bromide] to formazan. Cells in 96-well plates were incubated (37° C.) with MTT (0.2 mg/ml for 60 minutes). Culture medium was removed by aspiration and the cells solubilized in dimethylsulfoxide (DMSO) (100 μl). The extent of reduction of MTT to formazan within cells was quantitated by measurement of OD550 using a microplate reader. The calibration curve for the reduction of MTT to formazan was prepared in DMSO. Formazan production by cells was expressed as a percentage of the values obtained from untreated cells.

[8] = ecNOS (Table 2), read-out: EC50 for inhibition of ecNOS activity in tissue homogenates
[9] = inhibitor concentration -4.000 log M (Table 3)
[10] = inhibitor concentration -5.000 log M (Table 3)
[11] = inhibitor concentration -6.000 log M (Table 3)
[12] = inhibitor concentration -3.000 log M
[13] = inhibitor concentration -4.000 log M
[14] = inhibitor concentration -5.000 log M
[15] = inhibitor concentration -6.000 log M
[16] = inhibitor concentration -7.000 log M

With `NC1=NCC[Se]1` [ASZ, 2-aminoselenazoline] the “inhibition of nitrite production, in words” value ([1]; IFN and LPS) was “dose-dependently inhibited nitrite production”, the activity at 1 µM [1] was 100% and the activity at 3.16 µM [1] was 96%. The activity at 10 µM [1] was 60%, the activity at 31.6 µM [1] was 37% and the activity at 100 µM [1] was 14%.
`N=C(N)NCCSSCCNC(=N)N` [GED, guanidinoethyldisulfide] was tested, and the EC50 [2] was 200 µM, the “inhibition of ecNOS activity, in words” value [3] was “inhibited ecNOS activity less strongly than the L-NMA” and the EC50 [3, 8] was 630 µM. The “inhibition of nitrite production, in words” value ([1]; IFN and LPS) was “dose-dependent inhibition of nitrite production”, the “potency relative to reference compound L-NMA” value ([1]; IFN and LPS) was “higher than the reference compound L-NMA” and the activity at 1000 µM [1] was 0%. The activity at 100 µM [1, 9] was 0%, the activity at 10 µM [1, 10] was 7% and the activity at 1 µM [1, 11] was 36%. The EC50 ([1]; J774.2, IFN and LPS, Example 9, read-out: EC50, inhibition of nitrite production) was 0.3 µM, the EC50 ([4]; comparing Tables 4 and 5, read-out: EC50 on iNOS) was 200 µM and the “selectivity for iNOS” value [4] was “relative selectivity of SEG and GED for iNOS”. The “iNOS ACTIVITY (%)” value [4, 12] was 22.000%, the “iNOS ACTIVITY (%)” value [4, 13] was 57.000% and the “iNOS ACTIVITY (%)” value [4, 14] was 100.000%. The “iNOS ACTIVITY (%)” value [4, 15] was 100.000%, the “iNOS ACTIVITY (%)” value [4, 16] was 100.000% and the “inhibition of iNOS activity, in words” value [4] was “somewhat similar in their inhibitory effect on INOS activity”. The EC50 [5] was 180 µM and the EC50 [6] was 1 µM.
`N=C(NCCC[C@H](N)C(=O)O)N[N+](=O)[O-]` [L-NA, N^G -Nitro-L-arginine, reference compound] showed an EC50 [2] of 300 µM and an EC50 [6] of ~1000 µM.
For `N=C(N)NCCS` [MEG, mercaptoethylguanidine], the EC50 [2] was 11.5 µM, the EC50 [3, 8] was 110 µM and the cellular viability ([7]; 1 mM) was “a slight reduction in viability was observed”. For the same molecule, the cellular viability ([7]; effective doses 1-100 μM) was “did not decrease cellular viability”, the EC50 [5] was 60 µM and the EC50 [6] was 13 µM.
With `N=C(N)NCCCS` [MPG, mercaptopropylguanidine] the EC50 [2] was 7 µM, the EC50 [3, 8] was 4 µM and the cellular viability ([7]; 1 mM) was “a slight reduction in viability was observed”. The cellular viability ([7]; effective doses 1-100 μM) was “did not decrease cellular viability”, the EC50 [5] was 80 µM and the EC50 [6] was 15 µM.
`CCSCCNC(=N)N` [S-ethyl-MEG] was tested, and the “inhibition of iNOS activity, in words” value [2] was “relative potent inhibitors of iNOS activity”, the EC50 [2] was 30 µM and the “inhibition of ecNOS activity, in words” value [3] was “less potent on ecNOS”. It also gave an EC50 [3, 8] of 850 µM, an EC50 [5] of 460 µM and an EC50 [6] of 328 µM. The “inhibition of nitrite production/accumulation, in words” value ([6]; immunostimulated J774 macrophages) was “inhibitors of nitrite accumulation”.
In the case of `CSCCNC(=N)N` [S-methyl-MEG, S-methyl-mercaptoethylguanidine], the EC50 [2] is reported as 1.4 µM, the EC50 [3, 8] is reported as 43 µM and the EC50 [5] is reported as 8 µM. It also gave an EC50 [6] of 80 µM.
`N=C(N)NCC[SeH]` [SEG, selenoethylguanidine] was tested, and the EC50 [3] was 600 µM, the “inhibition of ecNOS activity, in words” value [3] was “inhibited ecNOS activity less strongly than the L-NMA” and the “inhibition of nitrite production, in words” value ([1]; IFN and LPS) was “dose-dependent inhibition of nitrite production; also recorded: dose-dependently inhibited nitrite production”. For the same molecule, the “potency relative to reference compound L-NMA” value ([1]; IFN and LPS) was “higher than the reference compound L-NMA”, the activity at 1000 µM [1] was 0% and the activity at 100 µM [1, 9] was 7%. It also gave an activity at 100 µM ([1]; inhibitor concentration -4 log M (Table 6)) of 14%, an activity at 31.6 µM ([1]; inhibitor concentration -4.5 log M (Table 6)) of 28% and an activity at 10 µM [1, 10] of 50%. For the same molecule, the activity at 10 µM ([1]; inhibitor concentration -5 log M (Table 6)) was 50%, the activity at 3.16 µM ([1]; inhibitor concentration -5.5 log M (Table 6)) was 94% and the activity at 1 µM [1, 11] was 90%. The activity at 1 µM ([1]; inhibitor concentration -6 log M (Table 6)) was 100%, the EC50 ([1]; J774.2, read-out: EC50, inhibition of nitrite production) was 10 µM and the EC50 [4] was 10 µM. The “selectivity for iNOS” value [4] was “relative selectivity of SEG and GED for iNOS”, the “iNOS ACTIVITY (%)” value [4, 12] was 0.0000% and the “iNOS ACTIVITY (%)” value [4, 13] was 15.000%. For the same molecule, the “iNOS ACTIVITY (%)” value [4, 14] was 56.000%, the “iNOS ACTIVITY (%)” value [4, 15] was 86.000% and the “iNOS ACTIVITY (%)” value [4, 16] was 100.000%. For the same molecule, the “inhibition of iNOS activity, in words” value [4] was “inhibits iNOS activity, more strongly”.
For `N=C(N)NCCC[SeH]` [SPG, selenopropylguanidine], the “inhibition of nitrite production, in words” value ([1]; IFN and LPS) was “dose-dependently inhibited nitrite production”, the activity at 1 µM [1] was 100% and the activity at 3.16 µM [1] was 73%. It also gave an activity at 10 µM [1] of 11%, an activity at 31.6 µM [1] of 4% and an activity at 100 µM [1] of 0%.
